Source: patent US11591329B2, “Bicyclic heterocycles as FGFR inhibitors” (Incyte Corporation, priority 2019, dated 2023)

These compounds were tested against FGFR3 enzyme (Homo sapiens (Human), UniProt P22607) (assay: FGFR Enzymatic Assay (peptide phosphorylation, FRET)). Conditions: pre-incubated for 4 hours; ATP 140 μM; 25° C. for 1 hr.
Type: biochemical
Experimental: The inhibitor potency of the exemplified compounds was measured in an enzyme assay that measures peptide phosphorylation using FRET measurements to detect product formation. Inhibitors were serially diluted in DMSO and a volume of 0.5 μL was transferred to the wells of a 384-well plate. For FGFR3, a 10 μL volume of FGFR3 enzyme (Millipore) diluted in assay buffer (50 mM HEPES, 10 mM MgCl2, 1 mM EGTA, 0.01% Tween-20, 5 mM DTT, pH 7.5) was added to the plate and pre-incubated for a time between 5-10 minutes and up to 4 hours. Appropriate controls (enzyme blank and enzyme with no inhibitor) were included on the plate. The assay was initiated by the addition of a 10 μL solution containing biotinylated EQEDEPEGDYFEWLE peptide substrate (SEQ ID NO: 1) and ATP (final concentrations of 500 nM and 140 μM respectively) in assay buffer to the wells. The plate was incubated at 25° C. for 1 hr. The reactions were ended with the addition of 10 μL/well of quench solution (50 mM Tris, 150 mM NaCl, 0.5 mg/mL BSA, pH 7.8; 30 mM EDTA with Perkin Elmer Lance Reagents at 3.75 nM Eu-antibody PY20 and 180 nM APC-Streptavidin). The plate was allowed to equilibrate for ˜1 hr before scanning the wells on a PheraStar plate reader (BMG Labtech).
GraphPad prism3 was used to analyze the data. The IC50 values were derived by fitting the data to the equation for a sigmoidal dose-response with a variable slope. Y=Bottom+(Top−Bottom)/(1+10^((LogIC50−X)*HillSlope)) where X is the logarithm of concentration and Y is the response.
Table 1 provides IC50 data for compounds of the invention assayed in the FGFR Enzymatic Assay after dilution in assay buffer, added to the plate and pre-incubated for 4 hours. The symbol: “+” indicates an IC50 less than 10 nM; “++” indicates an IC50 greater than or equal to 10 nM but less than 30 nM; “+++” indicates an IC50 greater than or equal to 30 nM but less than 200 nM; and “++++” indicates an IC50 greater than or equal to 200 nM.

Sequence of FGFR3 enzyme (P22607 23-806): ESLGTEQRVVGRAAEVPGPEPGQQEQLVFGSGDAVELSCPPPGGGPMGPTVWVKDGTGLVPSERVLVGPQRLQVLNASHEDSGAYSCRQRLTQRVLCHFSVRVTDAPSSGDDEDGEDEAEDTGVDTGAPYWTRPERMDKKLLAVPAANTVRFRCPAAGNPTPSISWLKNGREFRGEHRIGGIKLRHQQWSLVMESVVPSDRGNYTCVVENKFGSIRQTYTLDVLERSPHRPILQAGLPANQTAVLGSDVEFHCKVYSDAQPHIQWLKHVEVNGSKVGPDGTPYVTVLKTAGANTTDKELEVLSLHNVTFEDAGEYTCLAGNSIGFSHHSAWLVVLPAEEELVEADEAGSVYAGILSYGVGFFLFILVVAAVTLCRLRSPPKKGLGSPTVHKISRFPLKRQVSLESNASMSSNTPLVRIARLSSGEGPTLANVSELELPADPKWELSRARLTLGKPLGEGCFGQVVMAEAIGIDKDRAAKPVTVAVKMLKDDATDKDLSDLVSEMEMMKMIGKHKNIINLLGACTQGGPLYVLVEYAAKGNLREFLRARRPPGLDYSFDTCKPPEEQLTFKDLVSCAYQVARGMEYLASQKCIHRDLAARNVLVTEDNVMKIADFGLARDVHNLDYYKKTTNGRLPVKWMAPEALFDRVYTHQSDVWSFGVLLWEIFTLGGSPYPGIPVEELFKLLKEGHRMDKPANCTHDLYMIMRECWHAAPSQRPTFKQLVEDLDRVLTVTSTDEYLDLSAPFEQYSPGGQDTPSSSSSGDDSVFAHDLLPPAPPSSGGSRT

Row | SMILES | IC50
1 | Cn1cc(-c2n[nH]c3ccc(N4CCCC(O)C4)nc23)cn1 (centres unmarked) [Example 1, 1-(3-(1-Methyl-1H-pyrazol-4-yl)-1H-pyrazolo[4,3-b]pyridin-5-yl)piperidin-3-ol] | ≥ 200 nM
2 | Cn1cc(-c2n[nH]c3ccc(N4CCn5cnc(C(F)(F)F)c5C4)nc23)cn1 [Example 2, 3-(1-Methyl-1H-pyrazol-4-yl)-5-(1-(trifluoromethyl)-5,6-dihydroimidazo[1,5-a]pyrazin-7(8H)-yl)-1H-pyrazolo[4,3-b]pyridine] | < 10 nM
3 | Cn1cc(-c2n[nH]c3ccc(N4CCCn5nccc54)nc23)cn1 [Example 3, 5-(6,7-Dihydropyrazolo[1,5-a]pyrimidin-4(5H)-yl)-3-(1-methyl-1H-pyrazol-4-yl)-1H-pyrazolo[4,3-b]pyridine] | ≥ 200 nM
4 | CN1CC2CCC(C1=O)N2c1ccc2[nH]nc(-c3cnn(C)c3)c2n1 (centres unmarked) [Example 4, 3-Methyl-8-(3-(1-methyl-1H-pyrazol-4-yl)-1H-pyrazolo[4,3-b]pyridin-5-yl)-3,8-diazabicyclo[3.2.1]octan-2-one] | < 10 nM
5 | CC(C)C1C(=O)N(C)CCN1c1ccc2[nH]nc(-c3cnn(C)c3)c2n1 (centres unmarked) [Example 5, 3-Isopropyl-1-methyl-4-(3-(1-methyl-1H-pyrazol-4-yl)-1H-pyrazolo[4,3-b]pyridin-5-yl)piperazin-2-one] | < 10 nM
6 | CCC1C(=O)N(C)CCN1c1ccc2[nH]nc(-c3cnn(C)c3)c2n1 (centres unmarked) [Example 6, 3-Ethyl-1-methyl-4-(3-(1-methyl-1H-pyrazol-4-yl)-1H-pyrazolo[4,3-b]pyridin-5-yl)piperazin-2-one] | < 10 nM
7 | CCC1(CC)C(=O)N(C)CCN1c1ccc2[nH]nc(-c3cnn(C)c3)c2n1 [Example 7, 3,3-Diethyl-1-methyl-4-(3-(1-methyl-1H-pyrazol-4-yl)-1H-pyrazolo[4,3-b]pyridin-5-yl)piperazin-2-one] | 10 to 30 nM
8 | CN1CCN(c2ccc3[nH]nc(-c4cnn(C)c4)c3n2)C(Cc2ccccc2)C1=O (centres unmarked) [Example 8, 3-Benzyl-1-methyl-4-(3-(1-methyl-1H-pyrazol-4-yl)-1H-pyrazolo[4,3-b]pyridin-5-yl)piperazin-2-one] | 10 to 30 nM
9 | CN1CCN(c2ccc3[nH]nc(-c4cnn(C)c4)c3n2)C(CC2CC2)C1=O (centres unmarked) [Example 9, 3-(Cyclopropylmethyl)-1-methyl-4-(3-(1-methyl-1H-pyrazol-4-yl)-1H-pyrazolo[4,3-b]pyridin-5-yl)piperazin-2-one] | 10 to 30 nM
10 | CN1CCN(c2ccc3[nH]nc(-c4cnn(C)c4)c3n2)C(C2CCOCC2)C1=O (centres unmarked) [Example 10, 1-Methyl-4-(3-(1-methyl-1H-pyrazol-4-yl)-1H-pyrazolo[4,3-b]pyridin-5-yl)-3-(tetrahydro-2H-pyran-4-yl)piperazin-2-one] | ≥ 200 nM
11 | CN1CCN(c2ccc3[nH]nc(-c4cnn(C)c4)c3n2)C(Cc2ccncc2)C1=O (centres unmarked) [Example 11, 1-Methyl-4-(3-(1-methyl-1H-pyrazol-4-yl)-1H-pyrazolo[4,3-b]pyridin-5-yl)-3-(pyridin-4-ylmethyl)piperazin-2-one] | ≥ 200 nM
12 | CC(c1ccccc1)C1C(=O)N(C)CCN1c1ccc2[nH]nc(-c3cnn(C)c3)c2n1 (centres unmarked) [Example 12, 1-Methyl-4-(3-(1-methyl-1H-pyrazol-4-yl)-1H-pyrazolo[4,3-b]pyridin-5-yl)-3-(1-phenylethyl)piperazin-2-one] | < 10 nM
13 | CN1CCN(c2ccc3[nH]nc(-c4cnn(C)c4)c3n2)C(C2CC2)C1=O (centres unmarked) [Example 13, 3-Cyclopropyl-1-methyl-4-(3-(1-methyl-1H-pyrazol-4-yl)-1H-pyrazolo[4,3-b]pyridin-5-yl)piperazin-2-one] | < 10 nM
14 | CC1C(=O)N(C2CC2)CCN1c1ccc2[nH]nc(-c3cnn(C)c3)c2n1 (centres unmarked) [Example 14, 1-Cyclopropyl-3-methyl-4-(3-(1-methyl-1H-pyrazol-4-yl)-1H-pyrazolo[4,3-b]pyridin-5-yl)piperazin-2-one] | 10 to 30 nM
15 | CC1CN(c2ccc3[nH]nc(-c4cnn(C)c4)c3n2)C(C)C(=O)N1C (centres unmarked) [Example 15, 1,3,6-Trimethyl-4-(3-(1-methyl-1H-pyrazol-4-yl)-1H-pyrazolo[4,3-b]pyridin-5-yl)piperazin-2-one] | < 10 nM
16 | CC(C)C1C(=O)N(C)CCN1c1ccc2[nH]nc(-c3cnn(Cc4cccnc4)c3)c2n1 (centres unmarked) [Example 16, 3-Isopropyl-1-methyl-4-(3-(1-(pyridin-3-ylmethyl)-1H-pyrazol-4-yl)-1H-pyrazolo[4,3-b]pyridin-5-yl)piperazin-2-one] | < 10 nM
17 | CC(C)C1C(=O)N(C)CCN1c1ccc2[nH]nc(-c3cnn(CCN4CCOCC4)c3)c2n1 (centres unmarked) [Example 17, 3-Isopropyl-1-methyl-4-(3-(1-(2-morpholinoethyl)-1H-pyrazol-4-yl)-1H-pyrazolo[4,3-b]pyridin-5-yl)piperazin-2-one] | 10 to 30 nM
18 | CC(C)C1C(=O)N(C)CCN1c1ccc2[nH]nc(-c3ccc(N4CCN(C)CC4)c(F)c3)c2n1 (centres unmarked) [Example 18, 4-(3-(3-Fluoro-4-(4-methylpiperazin-1-yl)phenyl)-1H-pyrazolo[4,3-b]pyridin-5-yl)-3-isopropyl-1-methylpiperazin-2-one] | < 10 nM
19 | CC(C)C1C(=O)N(C)CCN1c1ccc2[nH]nc(-c3cc4cnccc4s3)c2n1 (centres unmarked) [Example 19, 3-Isopropyl-1-methyl-4-(3-(thieno[3,2-c]pyridin-2-yl)-1H-pyrazolo[4,3-b]pyridin-5-yl)piperazin-2-one] | < 10 nM
20 | CC(C)C1C(=O)N(C)CCN1c1ccc2[nH]nc(-c3cn(C)nn3)c2n1 (centres unmarked) [Example 20, 3-Isopropyl-1-methyl-4-(3-(1-methyl-1H-1,2,3-triazol-4-yl)-1H-pyrazolo[4,3-b]pyridin-5-yl)piperazin-2-one] | 30 to 200 nM
21 | CC1C(=O)N(C)CCN1c1nc2c(-c3cnn(C)c3)n[nH]c2cc1Cl (centres unmarked) [Example 21, 4-(6-Chloro-3-(1-methyl-1H-pyrazol-4-yl)-1H-pyrazolo[4,3-b]pyridin-5-yl)-1,3-dimethylpiperazin-2-one] | 10 to 30 nM
22 | Cc1cc2[nH]nc(-c3cnn(C)c3)c2nc1N1CCN(C)C(=O)C1C (centres unmarked) [Example 22, 1,3-Dimethyl-4-(6-methyl-3-(1-methyl-1H-pyrazol-4-yl)-1H-pyrazolo[4,3-b]pyridin-5-yl)piperazin-2-one] | 30 to 200 nM
23 | CC1C(=O)N(C)CCN1c1nc2c(-c3cnn(C)c3)n[nH]c2cc1C#N (centres unmarked) [Example 23, 5-(2,4-Dimethyl-3-oxopiperazin-1-yl)-3-(1-methyl-1H-pyrazol-4-yl)-1H-pyrazolo[4,3-b]pyridine-6-carbonitrile] | 30 to 200 nM
24 | COc1cc2[nH]nc(-c3cnn(C)c3)c2nc1N1CCN(C)C(=O)C1C (centres unmarked) [Example 24, 4-(6-Methoxy-3-(1-methyl-1H-pyrazol-4-yl)-1H-pyrazolo[4,3-b]pyridin-5-yl)-1,3-dimethylpiperazin-2-one] | 30 to 200 nM
25 | CC1C(=O)N(C)CCN1c1nc2c(-c3cnn(C)c3)n[nH]c2cc1-c1ccoc1 (centres unmarked) [Example 25, 4-(6-(Furan-3-yl)-3-(1-methyl-1H-pyrazol-4-yl)-1H-pyrazolo[4,3-b]pyridin-5-yl)-1,3-dimethylpiperazin-2-one] | 30 to 200 nM
26 | CC1C(=O)N(C)CCN1c1nc2c(-c3cnn(C)c3)n[nH]c2cc1Cc1ccccc1 (centres unmarked) [Example 26, 4-(6-Benzyl-3-(1-methyl-1H-pyrazol-4-yl)-1H-pyrazolo[4,3-b]pyridin-5-yl)-1,3-dimethylpiperazin-2-one] | 30 to 200 nM
